# Patent US8404724B2, “Unit dose formulations and methods of treating thrombosis with an oral factor Xa inhibitor” (Millennium Pharmaceuticals, Inc., priority 2006, dated 2013)
# Where a name gives a salt, the structure may show the parent alone. Read-outs that look alike come from different tables or passages of the source.
# Columns and labels:
# [1] = Salt selection properties; type: physicochemical
# [2] = tested on: TF-induced plasma thrombin generation; assay: TF-induced plasma thrombin generation assay (plasma pool); type: biochemical, human
# Excerpt: For the in vitro studies, a plasma pool was generated from blood collected via venipuncture into 3.2% (1:9 v/v) tri-sodium citrate from a minimum of ten donors. The specific thrombin substrate used was Z-GGR-AMC (Bachem). Tissue factor (Innovin, “TF”) was purchased from Dade Behring. Rabbit anti-human TF IgG and purified recombinant human TF were from American Diagnostica. COATEST LMW Heparin/Heparin Kits were from Chomogenix. Source of anticoagulants tested were as follows: enoxaparin sodium (Aventis Pharmaceuticals), fondaparinux sodium (Glaxo Smith Kline), bivalirudin (The Medicines Company), fXa inhibitor C921-78 (Betz, A. et al. Biochem., 1999; 38-14582-14591); rivaroxaban and razaxaban.
# Thrombin generation in the plasma pool in the absence and presence of various anticoagulants and in warfarin treated patients was initiated by the addition of Innovin and calcium. Thrombin generation was measured by the continuous signal generated by cleavage of thrombin substrate over a 10 min period in a FlexStation fluorescence reader ([…]). The fluorescence signal (Max-Min relative fluorescence units) is presented as units (RFU) or arbitrary unites (AU) of thrombin generation and anti-fXa units were measured by Coatest. Quantitation of TF concentration in Innovin was carried out by immunoblotting with rabbit anti-human TF IgG, followed by densitometry and comparison with purified human TF (residues 1-263, expressed in baculovirus).
# [3] = tested on: vessel patency in FeCl3 induced thrombosis in rat carotid artery; assay: Rat carotid artery FeCl3 induced thrombosis model; type: in vivo
# Experimental: Rat FeCl3 model adapted from Kurz, K. D. et al. Thromb. Res. 1990; 60(4):269-280, incorporated by reference in its entirety herein, utilizing the left carotid artery. A stenosis of the artery was applied with a silk ligature reducing blood flow by 50% with a light crush injury followed by application of 50% FeCl3 for the duration of the experiment. Blood flow was monitored via pulsed Doppler flow probe and recorded for 90 minutes post-FeCl3 application. Enoxaparin and Betrixaban administered IV. Clopidogrel administered orally Q.D. for 3 days.
# [4] = tested on: PT and aPTT; assay: Ex vivo PT and aPTT in rat carotid model; conditions: 3 mg/kg/day
# Experimental: The third model investigated inhibition of ^111In labeled platelet deposition on dacron grafts and expansion chambers placed in femoral arteriovenous shunts in baboons. In all models tested, betrixaban and enoxaparin were administered as IV infusions and clopidogrel was dosed orally for three days. Ex vivo PT and aPTT were measured in all models.
# [5] = tested on: prothrombin time in human plasma; assay: In vitro extension of PT in human plasma
# [6] = tested on: prothrombin time in baboon plasma; assay: In vitro extension of PT in baboon plasma
# [7] = tested on: venous thromboembolism; assay: Randomized trial after total knee replacement: VTE incidence; type: in vivo, human; conditions: for VTE % (95% CI): 10 to 14 days after TKR
# Experimental: The primary efficacy endpoint was the incidence of venous thromboembolism (“VTE”) (symptomatic or asymptomatic deep vein thrombosis on a mandatory unilateral venogram or symptomatic pulmonary embolism) through Day 10 to 14. Safety endpoints included the incidence of major and clinically significant nonmajor bleeds through the day after venography. All efficacy and bleeding endpoints were adjudicated by a blinded, independent central adjudication committee. […] Enoxaparin was administered subcutaneously 12 to 24 hours after surgery and every 12 hours (q 12 h) thereafter. Treatment continued for 10 to 14 days unless a protocol-specified stopping criterion had been met. After discharge from the hospital, patients self-administered study medication. The last dose of study medication was administered the morning of the scheduled mandatory venography of the operated leg (Day 10 to 14).
# [8] = Plasma concentration of betrixaban in baboon model; type: in vivo
# [9] = Randomized trial after total knee replacement: bleeding and tolerability; parameters: species or system human; conditions: in vivo
# Excerpt: The primary efficacy endpoint was the incidence of venous thromboembolism (“VTE”) (symptomatic or asymptomatic deep vein thrombosis on a mandatory unilateral venogram or symptomatic pulmonary embolism) through Day 10 to 14. Safety endpoints included the incidence of major and clinically significant nonmajor bleeds through the day after venography. All efficacy and bleeding endpoints were adjudicated by a blinded, independent central adjudication committee.
# [10] = tested on: tissue factor initiated thrombin generation in human whole blood; assay: Whole blood prothrombinase / tissue factor initiated thrombin generation assay; type: biochemical
# Experimental: Thrombin activity was quantitated by cleavage of the fluorogenic substrate. […] Relative fluorescence unit (RFU) measurements of representative donor is shown.
# Thrombin generation assays were performed as described in Example 4, with compounds added ex vivo to human whole blood. PT and aPTT values in various species determined from compounds added to platelet poor plasma. Samples were run on an ACL 3000plus (Coulter), PT determined using Dade® Thromboplastin C plus and aPTT determined using Dade® Actin® FS Activated PTT reagent.
# [11] = tested on: prothrombin time in rabbit plasma; assay: In vitro extension of PT in rabbit plasma
# [12] = tested on: thrombin generation, anti-Xa activity, aPTT, PT, INR in patient plasma; assay: Randomized trial after total knee replacement: pharmacodynamic measurements; type: in vivo, human
# Experimental: Blood samples for assessment of plasma drug concentrations and pharmacodynamic measurements were obtained at screening, 1 to 4 hours after administration of the morning dose of study medication on Day 2, on the day of discharge and prior to the mandatory venogram on Day 10 to 14. Plasma samples were analyzed for betrixaban using high-performance-liquid-chromatography with tandem mass spectrometry. The method was validated for a range from 0.100-50.0 ng/mL, based on the analysis of 0.2 mL plasma. Quantitation was performed using a calibration standard curve generated from weighted least square regression analysis. […] The anti-Xa unit assay was adapted from the Coatest LMW heparin kit (Diapharma) and modified to a 96-well plate format. In this assay, standards and patient samples were assayed in duplicate and the limit of quantification was 0.05 anti-Xa U/mL. Thrombin generation was initiated by the addition of tissue factor (Innovin, Dade Behring) and calcium to citrate anticoagulated patient plasma (0.1 mL). Formation of thrombin was measured by cleavage of a specific thrombin substrate (Z-GGR-AMC, Bachem) over a 10 minute period. Relative fluorescence units were measured in a FlexStation fluorescence reader (Molecular Devices) and used for quantitation of thrombin generation. All patient plasma samples were assayed in triplicate and inhibition of thrombin generation reported as change from baseline relative fluorescent unit for each individual.
# [13] = tested on: prothrombin time in rat plasma; assay: In vitro extension of PT in rat plasma
# [14] = tested on: thrombus growth (platelet deposition, fibrin deposition) in arteriovenous shunt; assay: Thrombogenic device in arteriovenous shunt in baboons; type: in vivo, baboon
# [15] = tested on: thrombus mass in rabbit abdominal vena cava; assay: Rabbit vena cava thrombosis model (clot accretion on cotton threads); type: in vivo; conditions: 3 mg/kg IV infusion
# Experimental: Multiple doses of betrixaban were evaluated in three animal models. […] Efficacy in rabbit venous thrombosis was determined by measuring the thrombus accretion on cotton threads placed in the vena cava by means of a catheter inserted into the left femoral vein, as described by Hollenbach et al., Thromb. Haemost. 1994; 71:357-362, incorporated by reference in its entirety herein. The decrease in thrombus weight following a two hour infusion of compound was expressed relative to vehicle control. See also Sinha, et al., Eur. J. Pharmacology. 395:51-59 (2000), incorporated by reference in its entirety herein.
# [16] = tested on: clotting parameters (ACT, PT, aPTT, anti fXa units, plasma thrombin generation); assay: Ex vivo coagulation measurements and bleeding time in baboon model
# [17] = tested on: thrombin, factor VIIa, factor IXa, activated protein C, tissue plasminogen activator, plasmin and trypsin; assay: Amidolytic assays for related proteases (specificity); type: biochemical; conditions: relative to human fXa
# [18] = Baboon Arteriovenous, 0.49 mg/kg
molecule,measurement,setting,value
COc1ccc(NC(=O)c2ccc(C(=N)N(C)C)cc2)c(C(=O)Nc2ccc(Cl)cn2)c1 [betrixaban maleate],"crystallinity, thermal and hydrolytic stability",[1],excellent
CN(C)Cc1nccn1-c1ccc(NC(=O)c2cc(C(F)(F)F)nn2-c2ccc3onc(N)c3c2)c(F)c1 [Razaxaban],IC50,[2]; read-out: IC50,125 nM
O=C(NC[C@H]1CN(c2ccc(N3CCOCC3=O)cc2)C(=O)O1)c1ccc(Cl)s1 [Rivaroxaban],IC50,[2]; read-out: IC50,80 nM
COC(=O)[C@H](c1ccccc1Cl)N1CCc2sccc2C1 [Clopidogrel],Antithrombotic Activity,[3]; 3 mg/kg/day orally for 3 days,80% patency
same,APTT fold change,[4],1.03 fold
same,PT fold change,[4],1.01 fold
Bivalirudin,IC50,[2],2.4 µg/mL
COc1ccc(NC(=O)c2ccc(C(=N)N(C)C)cc2)c(C(=O)Nc2ccc(Cl)cn2)c1 [betrixaban],concentration for 2× change of PT,[5],0.4 µM
same,concentration for 2× change of PT,[6],1 µM
same,VTE % (95% CI),[7]; 15 mg BID orally,20 (12-32) %
same,VTE % (95% CI),[7]; 40 mg BID orally,15 (8-27) %
same,preventing VTE after TKR,[7]; in vivo,effective
same,Antithrombotic Activity,[3]; 19.1 mg/kg IV,90% patency
same,Plasma Concentration Range of Betrixaban,[8]; Dosed Group 1,7 to 10 ng/mL
same,Plasma Concentration Range of Betrixaban,[8]; Dosed Group 2,13 to 21 ng/mL
same,Plasma Concentration Range of Betrixaban,[8]; Dosed Group 3,26 to 38 ng/mL
same,Plasma Concentration Range of Betrixaban,[8]; Dosed Group 4,54 to 88 ng/mL
same,safety and tolerability,[9],safe and well tolerated
same,"suppressing both markers of thrombin generation, compared to fondaparinux (200 nM)","[10]; 200 nM, human whole blood",more potent
same,TAT and F1.2 generation,[10]; human whole blood,significantly inhibited
same,tissue factor initiated thrombin generation,[10]; human whole blood,dose-dependent inhibition
same,platelet mediated prothrombinase activity,[10]; whole blood prothrombinase assay,dose-dependently inhibited
same,concentration for 2× change of PT,[11],1.6 µM
same,effect on anti-Xa activity,"[12]; 15 mg, compared with enoxaparin",less
same,effect on the inhibition of thrombin generation,"[12]; 40 mg, TKR patients, compared with enoxaparin",more pronounced
same,effect on anti-Xa activity,"[12]; 40 mg, compared with enoxaparin",similar
same,"other coagulation parameters (i.e. aPTT, PT and INR)",[12]; TKR patients,did not appreciably affect
same,concentration for 2× change of PT,[13],8.9 µM
same,Antithrombotic Activity (arterial),[14]; [18],32% inhibition
same,Antithrombotic Activity (venous),[14]; [18],90% inhibition
same,Platelet deposition at 140 minutes,"[14]; Dose 3 (26-38 ng/ml), P<0.05",significant decrease compared to control
same,% Inhibition of Fibrin Formation,[14]; Dosed Group 1,−0.38%
same,% Inhibition of Platelet Deposition,[14]; Dosed Group 1,29.71%
same,% Inhibition of Fibrin Formation,[14]; Dosed Group 2,37.50%
same,% Inhibition of Platelet Deposition,[14]; Dosed Group 2,44.20%
same,% Inhibition of Fibrin Formation,[14]; Dosed Group 3,71.97%
same,% Inhibition of Platelet Deposition,[14]; Dosed Group 3,65.22%
same,% Inhibition of Fibrin Formation,[14]; Dosed Group 4,87.12%
same,% Inhibition of Platelet Deposition,[14]; Dosed Group 4,88.77%
same,Platelet deposition at 140 minutes,"[14]; dose 4 (54-88 ng/ml), P value<0.01",significant decrease compared to control
same,Antithrombotic Activity,[15],76% inhibition
same,Template bleeding times,[16]; any of the betrixaban treated animals,not perturbed
same,Anti fXa units,[16]; highest dose,0.31 Units/ml
same,inhibition of plasma thrombin generation (ex vivo),[16]; highest dose,72%
same,inhibition of plasma thrombin generation (ex vivo),[16]; lowest dose,13%
same,Anti fXa units,[16]; three lower doses,below the limit of quantitation
same,specificity against related proteases,[17],"greater than 86,000 fold"
